Measurements as given in US8067410B2, “Phenolic and catecholic amines and prodrugs thereof” (H. Lundbeck A/S, priority 2008, dated 2011).
Where a name gives a salt, the structure may show the parent alone. Read-outs that look alike come from different tables or passages of the source.

What was measured:
[1] = target: human recombinant D1 receptor (Homo sapiens, UniProt P21728); assay: D1 cAMP assay; format: cell-based
Procedure: The ability of the compounds to either stimulate or inhibit the D1 receptor mediated cAMP formation in CHO cells stably expressing the human recombinant D1 receptor was measured as follows. Cells were seeded in 96-well plates at a concentration of 11000 cells/well 3 days prior to the experiment. On the day of the experiment the cells were washed once in preheated G buffer (1 mM MgCl2, 0.9 mM CaCl2, 1 mM IBMX (3-i-butyl-1-methylxanthine) in PBS (phosphate buffered saline)) and the assay was initiated by addition of 100 micro-L of a mixture of 30 nM A68930 and test compound diluted in G buffer (antagonism) or test compound diluted in G buffer (agonism). The cells were incubated for 20 minutes at 37° C. and the reaction was stopped by the addition of 100 micro-L S buffer (0.1 M HCl and 0.1 mM CaCl2) and the plates were placed at 4° C. for 1 h. 68 micro-L N buffer (0.15 M NaOH and 60 mM NaOAc) was added and the plates were shaken for 10 minutes. 60 micro-1 of the reaction were transferred to cAMP FlashPlates (DuPont NEN) containing 40 micro-L 60 mM Sodium acetate pH 6.2 and 100 micro-L IC mix (50 mM Sodium acetate pH 6.2, 0.1% sodium azide, 12 mM CaCl2 1% BSA (bovine serum albumin) and 0.15 micro-Ci/mL ^125I-cAMP) were added. Following an 18 h incubation at 4° C. the plates were washed once and counted in a Wallac TriLux counter.

human D2 receptor = target: T1, human D2 receptor (Homo sapiens, UniProt P14416); assay: D2 cAMP assay; format: cell-based
T1 construct: expressed in transfected cells; host or cells: CHO cells
T1 sequence (P14416 whole entry): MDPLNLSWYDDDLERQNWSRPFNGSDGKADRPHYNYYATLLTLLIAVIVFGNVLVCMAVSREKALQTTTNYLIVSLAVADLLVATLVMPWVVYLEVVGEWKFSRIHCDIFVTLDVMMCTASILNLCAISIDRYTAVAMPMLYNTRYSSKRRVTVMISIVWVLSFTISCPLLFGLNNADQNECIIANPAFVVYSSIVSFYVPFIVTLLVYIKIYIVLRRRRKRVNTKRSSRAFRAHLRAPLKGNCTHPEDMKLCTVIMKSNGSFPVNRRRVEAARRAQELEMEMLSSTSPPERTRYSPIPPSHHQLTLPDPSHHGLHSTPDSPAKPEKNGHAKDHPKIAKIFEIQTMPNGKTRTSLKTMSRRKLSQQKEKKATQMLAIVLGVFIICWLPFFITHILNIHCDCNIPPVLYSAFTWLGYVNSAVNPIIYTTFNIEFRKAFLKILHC
Procedure: The ability of the compounds to either stimulate or inhibit the D2 receptor mediated inhibition of cAMP formation in CHO cells transfected with the human D2 receptor was measure as follows. Cells were seeded in 96 well plates at a concentration of 8000 cells/well 3 days prior to the experiment. On the day of the experiment the cells were washed once in preheated G buffer (1 mM MgCl2, 0.9 mM CaCl2, 1 mM IBMX in PBS) and the assay was initiated by addition of 100 micro-1 of a mixture of 1 micro-M quinpirole, 10 microM forskolin and test compound in G buffer (antagonism) or 10 micro-M forskolin and test compound in G buffer (agonism). The cells were incubated 20 minutes at 37° C. and the reaction was stopped by the addition of 100 micro-1 S buffer (0.1 M HCl and 0.1 mM CaCl2) and the plates were placed at 4° C. for 1 h. 68 micro-L N buffer (0.15 M NaOH and 60 mM Sodium acetate) were added and the plates were shaken for 10 minutes. 60 micro-L of the reaction were transferred to cAMP FlashPlates (DuPont NEN) containing 40 micro-L 60 mM NaOAc pH 6.2 and 100 micro-L IC mix (50 mM NaOAc pH 6.2, 0.1% Sodium azide, 12 mM CaCl2, 1% BSA and 0.15 micro-Ci/ml ^125I-cAMP) were added. Following an 18 h incubation at 4° C. the plates were washed once and counted in a Wallac TriLux counter.

[2] = cAMP formation in CHO cells stably expressing the human recombinant D1 receptor, read-out: D1 EC 50
[3] = inhibition of forskolin-stimulated cAMP formation in CHO cells transfected with the human D2 receptor, read-out: D2 EC 50

human recombinant D1 receptor, sequence (P21728 whole entry): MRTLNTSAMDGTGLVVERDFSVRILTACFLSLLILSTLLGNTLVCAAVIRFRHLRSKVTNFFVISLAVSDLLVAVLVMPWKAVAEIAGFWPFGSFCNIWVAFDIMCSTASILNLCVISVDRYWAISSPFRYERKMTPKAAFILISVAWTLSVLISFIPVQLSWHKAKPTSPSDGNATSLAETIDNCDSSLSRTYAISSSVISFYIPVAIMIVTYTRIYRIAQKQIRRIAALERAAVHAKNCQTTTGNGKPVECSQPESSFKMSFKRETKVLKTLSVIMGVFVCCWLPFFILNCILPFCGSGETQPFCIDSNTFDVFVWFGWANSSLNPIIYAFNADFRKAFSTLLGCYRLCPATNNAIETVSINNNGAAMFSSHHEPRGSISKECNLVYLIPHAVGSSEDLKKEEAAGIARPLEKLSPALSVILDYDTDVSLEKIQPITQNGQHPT

Compound | EC50 [1, 2] [nM] | EC50 (human D2 receptor; [3]) [nM] | EC50 [1] [nM] | EC50 (human D2 receptor) [nM]
CCCN1C[C@@H](CSC)O[C@@H]2Cc3c(cccc3OC)C[C@H]21 [Example 3c, (2S,4aR,10aR)-9-Methoxy-2-methylsulfanylmethyl-4-n-propyl-3,4,4a,5,10,10a-hexahydro-2H-naphtho[2,3-b][1,4]oxazine] | > 10000 | 110 | – | –
CCCN1C[C@H](Cn2ccnc2)O[C@@H]2Cc3c(cccc3OC)C[C@H]21 [Example 3e, (2R,4aR,10aR)-2-Imidazol-1-ylmethyl-9-methoxy-4-n-propyl-3,4,4a,5,10,10a-hexahydro-2H-naphtho[2,3-b][1,4]oxazine] | – | – | 5800 | 30
Oc1cccc2c1C[C@@H]1OCCN(CC3CC3)[C@H]1C2 [Example 5d2, (4aS,10aS)-4-cyclo-Propylmethyl-3,4,4a,5,10,10a-hexahydro-2H-naphtho[2,3-b][1,4]oxazin-9-ol hydrochloride] | – | – | > 10000 | 1400
CCCN1C[C@H](C)O[C@@H]2Cc3c(O)cccc3C[C@H]21 [Example 5k, (2S,4aR,10aR)-2-Methyl-4-n-propyl-3,4,4a,5,10,10a-hexahydro-2H-naphtho[2,3-b][1,4]oxazin-9-ol trifluoroacetate] | – | – | 180 | 2
CCCN1CCO[C@@H]2Cc3c(ccc(O)c3O)C[C@H]21 [Example 7, (4aR,10aR)-4-n-Propyl-3,4,4a,5,10,10a-hexahydro-2H-naphtho[2,3-b][1,4]oxazine-8,9-diol trifluoroacetate] | – | – | 200 | 0.15
CCCN1CCO[C@@H]2Cc3c(ccc4c3OCO4)C[C@H]21 [Example 8c, (6aR,10aR)-7-n-Propyl-6a,7,8,9,10a,11-hexahydro-6H-1,3,10-trioxa-7-aza-cyclo-penta[a]anthracene trifluoroacetate] | > 10000 | 140 | – | –
